The source of these data is patent US4803066A, “Antibacterial and/or antifungal compositions for topical application” (Smith & Nephew Associated Companies p.l.c., priority 1986, dated 1989).

One test deals with E. Coli 0029. In words: microbe, parasite or virus in culture. To be noted: Escherichia coli, read-out: MIC: Individual Agents.
The next test relates to Staph. aureus. Put plainly: microbe, parasite or virus in culture. The following applies: Staphylococcus aureus, read-out: MIC: Individual Agents.
For the next test, the system named is C. albicans V. In words: MIC of agents individually and in combination (broth, microtitre plate). The following applies: Candida albicans, read-out: MIC: Individual Agents.
The next test deals with C. albicans V ATCC 10231. In words: MIC of silver nitrate and clotrimazole individually and in combination (broth, microtitre plate). Format: cell-based, Candida albicans. To be noted: for MIC: Individual Agents: alone; for MIC: Individual Agents / MIC: Combination of Agents, Silver nitrate / MIC: Combination of Agents, Clotrimazole: C. albicans V ATCC 10231; for MIC: Combination of Agents, Silver nitrate: in combination with clotrimazole; for MIC: Combination of Agents, Clotrimazole: in combination with silver nitrate.

In a further test the test system is C. albicans 159. In words: microbe, parasite or virus in culture. The following applies: Candida albicans, 159, read-out: MIC: Individual Agents.
The next test deals with Enterococcus 0022. Put plainly: microbe, parasite or virus in culture. The following applies: Enterococcus, 0022, read-out: MIC: Individual Agents.
The subject of another test is Staph. aureus 1300. Put plainly: microbe, parasite or virus in culture. To be noted: Staphylococcus aureus, 1300, read-out: MIC: Individual Agents.
Another test has as its system C. albicans I. Put plainly: microbe, parasite or virus in culture. The following applies: Candida albicans, read-out: MIC: Individual Agents.
In a further test the test system is Staph. aureus NCTC 10788. In words: microbe, parasite or virus in culture. To be noted: Staphylococcus aureus, NCTC10788, read-out: MIC: Individual Agents.

Each structure is given as a SMILES string. ≈ marks a conversion by molar mass, not a printed value.

Experimental for C. albicans 159: (§1) The test method employed was as follows suspensions of each agent or combination of agents were prepared at a range of dilutions in 60% propylene glycol in water. Isosensitest (trade mark) broth was inoculated with a test organism at a concentration of 10^5 organisms per ml and a sample was dispensed into wells of a microliter plate. The range of concentration of test substance or combination was added to the wells so that there was a further 10-fold dilution of the test substance or combination. The plates were incubated for either 24 or 48 hours at 37° C., and the MIC read as the lowest concentration giving no visible growth. For each organism tested all conditions of inoculum preparation, inoculation and incubation were standardised throughout.
Experimental for C. albicans I: as §1
Experimental for C. albicans V ATCC 10231: as §1
Experimental for E. Coli 0029: as §1
Experimental for Enterococcus 0022: as §1
Experimental for Staph. aureus 1300: as §1
Experimental for Staph. aureus NCTC 10788: as §1

In the case of `Clc1ccc(COC(Cn2ccnc2)c2ccc(Cl)cc2Cl)c(Cl)c1` (centres unmarked) [Miconazole nitrate, 1-{2-(2,4-dichlorophenyl)-2-[(2,4-dichlorophenyl)methoxy]ethyl}-1H-imidazole], the figures for the MIC with E. Coli 0029, with Staph. aureus and with C. albicans V were greater than 500 µg/mL, greater than 500 µg/mL and 62.5 µg/mL, respectively.

On to `O=[N+]([O-])[O-].[Ag+]` [Silver nitrate, silver nitrate], for which, in the test with C. albicans V ATCC 10231 (Table 3), the “MIC: Individual Agents” value worked out at 25 µg/mL and the “MIC: Combination of Agents, Silver nitrate” value is 6.25 µg/mL. Also, in the test with C. albicans V ATCC 10231 (Table 4), the “MIC: Individual Agents” value amounted to 25 µg/mL and the “MIC: Combination of Agents, Silver nitrate” value is 6.25 µg/mL.

Take `Clc1ccccc1C(c1ccccc1)(c1ccccc1)n1ccnc1` [Clotrimazole, 1-{(2-chlorophenyl)diphenylmethyl}-1H-imidazole]: the MIC was 12.5 µg/mL in the test on C. albicans V ATCC 10231 (Candida albicans, ATCC10231, read-out: MIC: Individual Agents); 25 µg/mL (≈ 72.5 µM) with C. albicans 159; 100 µg/mL (≈ 290 µM) with Enterococcus 0022; 100 µg/mL (≈ 290 µM) in the test with Staph. aureus 1300; 5 µg/mL (≈ 14.5 µM) with C. albicans I; 100 µg/mL (≈ 290 µM) in the test on Staph. aureus NCTC 10788. Further, the MIC in the test on C. albicans V was found to be 0.5 µg/mL. Also, the “MIC: Combination of Agents, Clotrimazole” value with C. albicans V ATCC 10231 (Table 3) and in the test with C. albicans V ATCC 10231 (Table 4) was 3.125 µg/mL in each case. In the test with C. albicans V ATCC 10231 (Table 4), the “MIC: Individual Agents” value stood at 12.5 µg/mL.
